Measurements as given in ChEMBL document CHEMBL4334553, “Discovery of Hydroxyamidine Based Inhibitors of IDO1 for Cancer Immunotherapy with Reduced Potential for Glucuronidation” (ACS Med Chem Lett, 2020).
The source made the active and inactive calls. The calls are words filed in the database; no cut-off is given here.

Key:
UGT1A9 = target: T1, UGT1A9 (Homo sapiens, UniProt O60656); test: Stability assessed as recombinant UGT1A9 (unknown origin) mediated compound glucuronidation by measuring half-life at 1 uM incubated in water bath by shaking at 37 degree C measured upto 60 mins in presence of UDPGA by LC-MS/MS analysis; format: ADME
T1 sequence (O60656 whole entry): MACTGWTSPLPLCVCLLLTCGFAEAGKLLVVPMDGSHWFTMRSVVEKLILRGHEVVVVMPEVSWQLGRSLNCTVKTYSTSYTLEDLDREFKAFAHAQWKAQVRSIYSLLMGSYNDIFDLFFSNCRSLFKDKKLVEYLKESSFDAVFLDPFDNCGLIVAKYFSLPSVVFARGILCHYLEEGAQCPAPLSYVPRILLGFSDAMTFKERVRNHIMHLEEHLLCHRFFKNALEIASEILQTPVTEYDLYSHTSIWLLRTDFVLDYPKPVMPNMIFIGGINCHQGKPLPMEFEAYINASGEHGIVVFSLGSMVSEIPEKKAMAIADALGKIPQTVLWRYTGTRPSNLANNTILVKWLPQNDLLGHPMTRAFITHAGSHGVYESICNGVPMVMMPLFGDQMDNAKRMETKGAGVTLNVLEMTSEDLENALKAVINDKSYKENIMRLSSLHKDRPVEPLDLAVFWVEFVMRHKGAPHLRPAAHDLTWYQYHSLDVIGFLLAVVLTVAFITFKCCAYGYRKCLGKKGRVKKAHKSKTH

[1] = Half life in mouse liver microsomes; format: ADME, Microsome
[2] = target: T2, Indoleamine 2,3-dioxygenase 1 (Homo sapiens, UniProt P14902); test: Inhibition of human N-terminal GST-tagged IDO1 expressed in Escherichia coli Rosetta(DE3) pLysS using L-tryptophan as substrate measured after 1 hr by fluorescence assay
[3] = target: T2, Indoleamine 2,3-dioxygenase 1; test: Inhibition of IDO1 in interferon-gamma-induced human SKOV3 cells assessed as N-formylkynurenine formation using L-tryptophan as substrate measured after 24 hrs by fluorescence assay
[4] = Half life in human liver microsomes; format: ADME, Microsome
[5] = Oral bioavailability in rat at 5 mg/kg administered as single dose by capillary micro-sampling analysis; format: ADME, organism-based; details: in vivo
[6] = Clearance in rat at 1 mg/kg, iv administered as single dose by capillary micro-sampling analysis; format: ADME, organism-based; details: in vivo
[7] = AUC (0 to 24 hrs) in rat at 5 mg/kg, po administered as single dose by capillary micro-sampling analysis; format: ADME, organism-based; design: dose 5 mg/kg, time < 24 hr, route oral; details: in vivo
[8] = AUC (0 to 24 hrs) in mouse at 10 mg/kg, po by capillary micro-sampling analysis; format: ADME, organism-based; design: dose 10 mg/kg, time < 24 hr, route oral; details: in vivo
CT26 [9] = test: (§1) Synergistic antitumor activity against mouse CT26 cells implanted in immunocompetent BALB/c mouse assessed as survival at day 70 at 100 mg/kg, po administered twice daily over 15 days starting from day 10 post implantation in presence of CTLA-4 antibody at 100 ug, ip administered at day 3,6,9 measured thrice per week and monitored for 45 days; format: functional, organism-based
Cytochrome P450 2C9 = Cytochrome P450 2C9 (Homo sapiens, UniProt P11712); test: Inhibition of CYP2C9 (unknown origin); format: ADME
CT26 [10] = test: as §1, with “reduction in tumour growth” for “survival at day 70”, “week by digital caliper method” for “week”; format: functional, organism-based
[11] = Cmax in mouse at 10 mg/kg, po by capillary micro-sampling analysis; format: ADME, organism-based; design: dose 10 mg/kg, route oral; details: in vivo
[12] = Volume of distribution in rat at 1 mg/kg, iv administered as single dose by capillary micro-sampling analysis; format: ADME, organism-based; details: in vivo
Cytochrome P450 3A4 = Cytochrome P450 3A4 (Homo sapiens, UniProt P08684); test: Inhibition of CYP3A4 (unknown origin); format: ADME
[13] = target: Tryptophan 2,3-dioxygenase (Homo sapiens, UniProt P48775); test: Inhibition of TDO in human HEK cells; format: cell-based
[14] = Protein binding in rat plasma; format: ADME, cell-free; details: read-out: PPB (converted)
[15] = Half life in mouse at 10 mg/kg, po by capillary micro-sampling analysis; format: ADME, organism-based; details: in vivo
[16] = Cmax in rat at 5 mg/kg, po administered as single dose by capillary micro-sampling analysis; format: ADME, organism-based; design: dose 5 mg/kg, route oral; details: in vivo
Cytochrome P450 2C19 = Cytochrome P450 2C19 (Homo sapiens, UniProt P33261); test: Inhibition of CYP2C19 (unknown origin); format: ADME
Mus musculus = test: In vivo inhibition of IDO1 in C57BL/6J mouse assessed as reduction in LPS-induced kynurenine level in plasma at 100 mg/kg, po administered via gavage measured after 24 hrs by LC-MS/MS analysis; format: functional, organism-based
[17] = target: T2, Indoleamine 2,3-dioxygenase 1; test: Inhibition IDO1 in LPS/IFN-gamma stimulated human whole blood assessed as reduction in tryptophan/kynurenine level preincubated for 15 mins followed by LPS/IFN-gamma stimulation measured after 20 hrs by LC-MS/MS analysis; format: tissue-based
[18] = Protein binding in mouse plasma; format: ADME, cell-free; details: read-out: PPB (converted)
[19] = Cmax in humanized PXB-mouse assessed as ratio of glucuronide to parent compound at 10 mg/kg, po administered as single dose; format: ADME, organism-based; details: in vivo
Cytochrome P450 2D6 = Cytochrome P450 2D6 (Homo sapiens, UniProt P10635); test: Inhibition of CYP2D6 (unknown origin); format: ADME
[20] = AUC in humanized PXB-mouse assessed as ratio of glucuronide to parent compound at 10 mg/kg, po administered as single dose; format: ADME, organism-based; details: in vivo
CT26 [21] = test: Antitumor activity against mouse CT26 cells implanted in immunocompetent BALB/c mouse assessed as reduction in tumour growth at 100 mg/kg, po administered twice daily over 15 days starting from day 10 post implantation measured thrice per week by digital caliper method; format: functional, organism-based
[22] = Half-life in rat at 1 mg/kg, iv administered as single dose by capillary micro-sampling analysis; format: ADME, organism-based; details: in vivo
[23] = Protein binding in human plasma; format: ADME, cell-free; details: read-out: PPB (converted)
[24] = Half life in rat liver microsomes; format: ADME, Microsome
[25] = AUC(0 to 12 hrs) at steady state in human assessed as ratio of glucuronide to compound at 50 mg, bid measured after 10 days; format: ADME; details: in vivo

T2 sequence (P14902 whole entry): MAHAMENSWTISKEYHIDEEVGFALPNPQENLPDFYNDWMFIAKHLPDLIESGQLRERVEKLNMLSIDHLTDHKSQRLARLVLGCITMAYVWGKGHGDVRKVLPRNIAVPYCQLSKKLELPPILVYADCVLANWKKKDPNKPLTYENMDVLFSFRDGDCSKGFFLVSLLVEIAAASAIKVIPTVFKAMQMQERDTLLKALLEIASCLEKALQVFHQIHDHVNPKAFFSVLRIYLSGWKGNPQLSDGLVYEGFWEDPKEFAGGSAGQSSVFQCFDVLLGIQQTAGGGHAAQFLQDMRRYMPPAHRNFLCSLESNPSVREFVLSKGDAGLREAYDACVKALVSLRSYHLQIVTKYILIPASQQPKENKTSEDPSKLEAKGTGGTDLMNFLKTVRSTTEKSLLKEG
Chain of Cytochrome P450 3A4 (P08684 whole entry): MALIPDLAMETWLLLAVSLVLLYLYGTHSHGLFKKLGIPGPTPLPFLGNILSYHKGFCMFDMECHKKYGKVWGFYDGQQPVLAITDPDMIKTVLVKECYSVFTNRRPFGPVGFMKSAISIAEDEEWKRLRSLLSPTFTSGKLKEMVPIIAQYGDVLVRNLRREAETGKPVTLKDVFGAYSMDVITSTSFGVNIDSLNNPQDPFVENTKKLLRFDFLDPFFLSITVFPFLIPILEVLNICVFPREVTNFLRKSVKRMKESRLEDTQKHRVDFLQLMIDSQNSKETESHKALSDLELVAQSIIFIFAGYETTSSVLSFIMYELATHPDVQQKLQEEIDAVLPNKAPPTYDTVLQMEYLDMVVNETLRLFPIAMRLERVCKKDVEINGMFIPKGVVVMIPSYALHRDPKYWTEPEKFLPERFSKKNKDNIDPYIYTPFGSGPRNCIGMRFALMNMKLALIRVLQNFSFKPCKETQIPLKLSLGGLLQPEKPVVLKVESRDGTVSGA
Chain of Tryptophan 2,3-dioxygenase (P48775 whole entry): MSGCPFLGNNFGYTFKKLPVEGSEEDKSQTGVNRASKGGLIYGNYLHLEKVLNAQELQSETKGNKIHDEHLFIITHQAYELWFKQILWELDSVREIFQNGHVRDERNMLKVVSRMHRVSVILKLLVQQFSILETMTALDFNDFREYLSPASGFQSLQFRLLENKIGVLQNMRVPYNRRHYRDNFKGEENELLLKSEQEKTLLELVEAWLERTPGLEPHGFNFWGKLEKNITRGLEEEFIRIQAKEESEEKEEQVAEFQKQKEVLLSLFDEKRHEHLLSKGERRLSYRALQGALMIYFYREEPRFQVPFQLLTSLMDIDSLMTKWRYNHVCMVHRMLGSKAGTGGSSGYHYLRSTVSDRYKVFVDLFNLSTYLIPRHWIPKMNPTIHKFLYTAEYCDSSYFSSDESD
Chain of Cytochrome P450 2C19 (P33261 whole entry): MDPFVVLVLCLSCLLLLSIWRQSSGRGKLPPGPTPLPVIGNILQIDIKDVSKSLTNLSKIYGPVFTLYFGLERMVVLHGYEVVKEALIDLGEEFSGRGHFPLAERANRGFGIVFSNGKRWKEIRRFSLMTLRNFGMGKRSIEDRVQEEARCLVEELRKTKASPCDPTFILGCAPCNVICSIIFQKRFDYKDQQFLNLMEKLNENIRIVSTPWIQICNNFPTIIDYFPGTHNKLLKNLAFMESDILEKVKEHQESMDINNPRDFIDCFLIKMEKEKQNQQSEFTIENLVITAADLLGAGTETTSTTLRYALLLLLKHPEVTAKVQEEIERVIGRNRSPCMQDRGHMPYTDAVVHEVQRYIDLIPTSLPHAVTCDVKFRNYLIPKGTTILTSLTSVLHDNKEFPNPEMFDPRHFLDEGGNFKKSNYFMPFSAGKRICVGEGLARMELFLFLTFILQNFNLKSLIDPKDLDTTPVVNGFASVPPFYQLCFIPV
Chain of Cytochrome P450 2D6 (P10635 whole entry): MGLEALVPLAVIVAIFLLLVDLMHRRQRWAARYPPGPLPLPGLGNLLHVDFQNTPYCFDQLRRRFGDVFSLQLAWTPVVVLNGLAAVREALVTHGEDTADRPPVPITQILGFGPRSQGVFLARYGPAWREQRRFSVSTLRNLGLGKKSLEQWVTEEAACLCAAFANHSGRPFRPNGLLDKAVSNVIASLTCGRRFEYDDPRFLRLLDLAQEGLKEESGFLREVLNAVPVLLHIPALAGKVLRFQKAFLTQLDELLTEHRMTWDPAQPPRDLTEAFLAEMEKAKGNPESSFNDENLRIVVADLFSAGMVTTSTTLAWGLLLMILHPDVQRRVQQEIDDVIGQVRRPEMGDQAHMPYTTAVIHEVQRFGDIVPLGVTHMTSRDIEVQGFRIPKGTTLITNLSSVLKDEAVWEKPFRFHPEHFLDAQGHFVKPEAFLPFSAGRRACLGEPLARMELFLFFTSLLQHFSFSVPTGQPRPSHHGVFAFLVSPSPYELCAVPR
Chain of Cytochrome P450 2C9 (P11712 whole entry): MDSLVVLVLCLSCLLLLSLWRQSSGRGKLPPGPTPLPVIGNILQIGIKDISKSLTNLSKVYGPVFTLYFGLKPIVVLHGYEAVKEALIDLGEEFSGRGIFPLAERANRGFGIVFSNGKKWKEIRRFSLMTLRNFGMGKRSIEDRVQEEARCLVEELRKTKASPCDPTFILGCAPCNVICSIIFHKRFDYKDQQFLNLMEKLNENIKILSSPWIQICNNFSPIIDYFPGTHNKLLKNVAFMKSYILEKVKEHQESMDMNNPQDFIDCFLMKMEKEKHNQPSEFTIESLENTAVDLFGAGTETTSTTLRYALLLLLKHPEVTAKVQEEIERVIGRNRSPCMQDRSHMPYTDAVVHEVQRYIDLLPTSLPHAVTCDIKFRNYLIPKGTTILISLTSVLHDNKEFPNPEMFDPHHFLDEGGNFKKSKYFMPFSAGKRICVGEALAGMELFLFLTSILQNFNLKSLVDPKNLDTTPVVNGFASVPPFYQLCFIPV

For `NS(=O)(=O)NCCNc1nonc1C(=NO)Nc1ccc(F)c(Br)c1` [EPACADOSTAT], the half-life at 1 µM (UGT1A9) was 0.383 h.
Work on `CS(=O)(=O)NCCSc1nonc1/C(=N/O)Nc1ccc(F)c(Br)c1` yielded a half-life at 1 µM (UGT1A9) of 0.357 h, a half-life [1] of 0.29 h and an IC50 [2] of 270 nM. It also gave an IC50 [3] of 9.3 nM and a half-life [4] of 1.73 h.
Compound `CSc1nonc1/C(=N/O)Nc1ccc(F)c(Br)c1` has an IC50 [2] of 560 nM and an IC50 [3] of 15 nM.
`NS(=O)(=O)CC(=O)NCCSc1nonc1/C(=N/O)Nc1cccc(Cl)c1` gave a bioavailability [5] of 28%, a half-life at 1 µM (UGT1A9) of 0.9 h and a clearance [6] of 3.65 mL/min/kg. The half-life [1] was 1.26 h, the IC50 [2] was 21 nM and the AUC(0-t) at 24 h [7] was 26 µM·h. The IC50 [3] was 10 nM, the AUC(0-t) at 24 h [8] was 11.9 µM·h and the Activity (CT26 [9]) was “Active”. For the same compound, the IC50 (Cytochrome P450 2C9) was > 10000 nM, the Activity (CT26 [10]) was “Active” and the Cmax [11] was 5 µM. The Vd [12] was 0.33 L/kg, the IC50 (Cytochrome P450 3A4) was > 10000 nM and the IC50 [13] was > 10000 nM. For the same compound, the fraction unbound [14] was 0.043, the half-life [15] was 2.6 h and the Cmax [16] was 5.6 µM. The IC50 (Cytochrome P450 2C19) was > 10000 nM, the inhibition (Mus musculus) was “Active” and the IC50 [17] was 220 nM. For the same compound, the fraction unbound [18] was 0.026, the Ratio [19] was > 3 and the IC50 (Cytochrome P450 2D6) was > 10000 nM. The Ratio [20] was > 2, the Activity (CT26 [21]) was “Active” and the half-life [22] was 1.5 h. For the same compound, the half-life [4] was > 3 h, the fraction unbound [23] was 0.046 and the half-life [24] was 0.562 h.
In the case of `NS(=O)(=O)CC(=O)NCCSc1nonc1/C(=N/O)Nc1cccc(C(F)F)c1`, the half-life at 1 µM (UGT1A9) is reported as > 3 h, the half-life [1] is reported as 1.5 h and the IC50 [2] is reported as 130 nM. For the same compound, the IC50 [3] was 17 nM and the half-life [4] was > 3 h.
For `N#Cc1cccc(N/C(=N\O)c2nonc2SCCNC(=O)CS(N)(=O)=O)c1`, the half-life at 1 µM (UGT1A9) was > 3 h, the half-life [1] was > 3 h and the IC50 [2] was 240 nM. For the same compound, the IC50 [3] was 44 nM and the half-life [4] was > 3 h.
`COc1nonc1/C(=N/O)Nc1ccc(F)c(Br)c1` gave an IC50 [2] of 230 nM and an IC50 [3] of 39 nM.
`CS(=N)(=O)CC(=O)NCCSc1nonc1/C(=N/O)Nc1ccc(F)c(Br)c1` (centres undefined) gave a half-life at 1 µM (UGT1A9) of 1.53 h, a half-life [1] of 1.25 h and an IC50 [2] of 61 nM. For the same compound, the IC50 [3] was 14 nM and the half-life [4] was 2.65 h.
With `NS(=O)(=O)NCCNc1nonc1/C(=N/OC1OC(C(=O)O)C(O)C(O)C1O)Nc1ccc(F)c(Br)c1` (centres undefined) the Ratio [25] was 8.1.
Work on `CS(=O)(=O)CCC(=O)NCCSc1nonc1/C(=N/O)Nc1ccc(F)c(Br)c1` yielded a half-life at 1 µM (UGT1A9) of 0.858 h, a half-life [1] of 1.66 h and an IC50 [2] of 140 nM. It also gave an IC50 [3] of 7.6 nM and a half-life [4] of 2.43 h.
For `NS(=O)(=O)CC(=O)NCCSc1nonc1/C(=N/O)Nc1cccc(Br)c1`, the half-life at 1 µM (UGT1A9) was 0.955 h, the half-life [1] was 0.918 h and the IC50 [2] was 30 nM. For the same compound, the IC50 [3] was 8.1 nM and the half-life [4] was > 3 h.
In the case of `NS(=O)(=O)NCCOc1nonc1/C(=N/O)Nc1ccc(F)c(Br)c1`, the half-life at 1 µM (UGT1A9) is reported as 0.0483 h, the IC50 [2] is reported as 150 nM and the IC50 [3] is reported as 12 nM.
For `NS(=O)(=O)CC(=O)NCCSc1nonc1/C(=N/O)Nc1cccc(C(F)(F)F)c1`, the half-life at 1 µM (UGT1A9) was > 3 h, the half-life [1] was 0.44 h and the IC50 [2] was 140 nM. The IC50 [3] was 12 nM and the half-life [4] was 1.95 h.
